25 molecules from US20220135591A1, “HETEROCYCLIC COMPOUNDS AS INHIBITORS OF MONOACYLGLYCEROL LIPASE (MAGL)” (Hoffmann-La Roche Inc., priority 2019, published 2022) can be followed below.

pIC50: −log10 of the molar value.

For this assay, the target named is T1, MAGL (Homo sapiens, UniProt Q99685).
T1 sequence (Q99685 1-303): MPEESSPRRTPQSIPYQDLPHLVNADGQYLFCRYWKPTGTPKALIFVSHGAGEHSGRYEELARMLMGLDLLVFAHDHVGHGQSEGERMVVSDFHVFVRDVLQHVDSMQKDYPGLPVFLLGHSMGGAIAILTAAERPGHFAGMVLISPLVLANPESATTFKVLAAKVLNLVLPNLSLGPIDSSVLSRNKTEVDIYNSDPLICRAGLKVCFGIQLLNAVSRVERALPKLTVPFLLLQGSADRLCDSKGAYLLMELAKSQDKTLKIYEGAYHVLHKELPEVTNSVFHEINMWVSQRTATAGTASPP
The experiment in a line: 2-AG assay: MAGL inhibitory activity by hydrolysis of 2-arachidonoylglycerol to arachidonic acid, mass spectrometry. The class given is biochemical. The following applies: 2-AG assay (values marked [b]). How it is done:
Alternatively, compounds were profiled for MAGL inhibitory activity by determining the enzymatic activity by following the hydrolysis of the natural substrate 2-arachidonoylglycerol (2-AG) resulting in arachidonic acid, which can be followed by mass spectrometry. This assay is hereinafter abbreviated “2-AG assay”.
The 2-AG assay was carried out in 384 well assay plates (PP, Greiner Cat #784201) in a total volume of 20 μL. Compound dilutions were made in 100% DMSO (VWR Chemicals 23500.297) in a polypropylene plate in 3-fold dilution steps to give a final concentration range in the assay from 12.5 μM to […]. 0.25 μL compound dilutions (100% DMSO) were added to 9 μL MAGL in assay buffer (50 mM TRIS (GIBCO, 15567-027), 1 mM EDTA (Fluka, 03690-100 mL), 0.01% (v/v) Tween. After shaking, the plate was incubated for 15 min at RT. To start the reaction, 10 μL 2-arachidonoylglycerol in assay buffer was added. The final concentrations in the assay was […] and 8 μM 2-arachidonoylglyerol. After shaking and 30 min incubation at RT, the reaction was quenched by the addition of 40 μL of ACN containing 4 μM of d8-arachidonic acid. The amount of arachidonic acid was traced by an online SPE system (Agilent Rapidfire) coupled to a triple quadrupole mass spectrometer (Agilent 6460). A C18 SPE cartridge (G9205A) was used in an ACN/water liquid setup. The mass spectrometer was operated in negative electrospray mode following the mass transitions 303.1→259.1 for arachidonic acid and 311.1→267.0 for d8-arachidonic acid. The activity of the compounds was calculated based on the ratio of intensities [arachidonic acid/d8-arachidonic acid].

In turn, `COc1cc(C(=O)N2CCN(c3nc4nc(Cl)ccc4o3)CC2)ccc1-c1ncn(C(C)(C)C)n1` [Example 124, (4-(1-(tert-butyl)-1H-1,2,4-triazol-3-yl)-3-methoxyphenyl)(4-(5-chlorooxazolo[4,5-b]pyridin-2-yl)piperazin-1-yl)methanone] showed a pIC50 of 7.09. For `O=C(c1ccc(-c2cn(CC3(F)CC3)nn2)cc1)N1CCN(c2nc3nc(Cl)ccc3o2)CC1` [Example 125, (4-(5-chlorooxazolo[4,5-b]pyridin-2-yl)piperazin-1-yl)(4-(1-((1-fluorocyclopropyl)methyl)-1H-1,2,3-triazol-4-yl)phenyl)methanone] the value was 6.92; for `Cc1ccc2oc(N3CCN(C(=O)c4ccc(-c5cn(CC6(F)CC6)nn5)cc4)CC3)nc2n1` [Example 126, (4-(1-((1-fluorocyclopropyl)methyl)-1H-1,2,3-triazol-4-yl)phenyl)(4-(5-methyloxazolo[4,5-b]pyridin-2-yl)piperazin-1-yl)methanone], 6.33; for `Cc1ccc2oc(N3CCN(C(=O)c4ccc(-c5nc(C(C)(C)C)nn5C)cc4)CC3)nc2n1` [Example 127, [4-(5-tert-butyl-2-methyl-1,2,4-triazol-3-yl)phenyl]-[4-(5-methyloxazolo[4,5-b]pyridin-2-yl)piperazin-1-yl]methanone], 6.64. For `Cc1ccc2oc(N3CCN(C(=O)c4cnc(-n5cnc(C(C)(C)C)n5)c(C)c4)CC3)nc2n1` [Example 128, [6-(3-tert-butyl-1,2,4-triazol-1-yl)-5-methylpyridin-3-yl]-[4-(5-methyl-[1,3]oxazolo[4,5-b]pyridin-2-yl)piperazin-1-yl]methanone] the value was 6.97. For `Cc1cc(C(=O)N2CCN(c3nc4nc(Cl)ccc4o3)CC2)cnc1-n1cnc(C(C)(C)C)n1` [Example 129, [6-(3-tert-butyl-1,2,4-triazol-1-yl)-5-methylpyridin-3-yl]-[4-(5-chloro-[1,3]oxazolo[4,5-b]pyridin-2-yl)piperazin-1-yl]methanone] the value was 7.28; for `Cc1ccc2oc(N3CCN(C(=O)c4cnc(-n5cc(C(C)(C)C)cn5)c(C)c4)CC3)nc2n1` [Example 130, [6-(4-tert-butylpyrazol-1-yl)-5-methylpyridin-3-yl]-[4-(5-methyl-[1,3]oxazolo[4,5-b]pyridin-2-yl)piperazin-1-yl]methanone], 8.10; for `CC(C)(C#N)Cn1cc(-c2ccc(C(=O)N3CCN(c4nc5nc(Cl)ccc5o4)CC3)cc2)nn1` [Example 131, 3-[4-[4-[4-(5-chlorooxazolo[4,5-b]pyridin-2-yl)piperazine-1-carbonyl]phenyl]triazol-1-yl]-2,2-dimethyl-propanenitrile], 7.46. The molecule `CC(C)(F)Cn1cc(-c2ccc(C(=O)N3CCN(c4nc5nc(Cl)ccc5o4)CC3)cc2)nn1` [Example 132, (4-(5-chlorooxazolo[4,5-b]pyridin-2-yl)piperazin-1-yl)(4-(1-(2-fluoro-2-methylpropyl)-1H-1,2,3-triazol-4-yl)phenyl)methanone] had a pIC50 of 7.31. As to `Cc1ccc2oc(N3CCN(C(=O)c4ccc(-c5cn(CC(C)(C)F)nn5)cc4)CC3)nc2n1` [Example 133, (4-(1-(2-fluoro-2-methylpropyl)-1H-1,2,3-triazol-4-yl)phenyl)(4-(5-methyloxazolo[4,5-b]pyridin-2-yl)piperazin-1-yl)methanone], the pIC50 was 7.03.

Consider `CC(C)(CF)n1cc(-c2ccc(C(=O)N3CCN(c4nc5nc(Cl)ccc5o4)CC3)cc2)nn1` [Example 134, (4-(5-chlorooxazolo[4,5-b]pyridin-2-yl)piperazin-1-yl)(4-(1-(1-fluoro-2-methylpropan-2-yl)-1H-1,2,3-triazol-4-yl)phenyl)methanone], for which the pIC50 is 7.32. The result for `Cc1ccc2oc(N3CCN(C(=O)c4ccc(-c5cn(C(C)(C)CF)nn5)cc4)CC3)nc2n1` [Example 135, (4-(1-(1-fluoro-2-methylpropan-2-yl)-1H-1,2,3-triazol-4-yl)phenyl)(4-(5-methyloxazolo[4,5-b]pyridin-2-yl)piperazin-1-yl)methanone] reads 6.94; that for `CC(C)(C#N)Cn1ncc(-c2ccc(C(=O)N3CCN(c4nc5nc(Cl)ccc5o4)CC3)cc2)n1` [Example 136, 3-[4-[4-[4-(5-chlorooxazolo[4,5-b]pyridin-2-yl)piperazine-1-carbonyl]phenyl]triazol-2-yl]-2,2-dimethyl-propanenitrile], 7.47; that for `Cc1nc(C(=O)N2CCN(c3nc4nc(Cl)ccc4o3)CC2)cnc1OCC1(C(F)(F)F)CC1` [Example 137, [4-(5-chlorooxazolo[4,5-b]pyridin-2-yl)piperazin-1-yl]-[6-methyl-5-[[1-(trifluoromethyl)cyclopropyl]methoxy]pyrazin-2-yl]methanone], 7.47.

Consider `COc1cc(C(=O)N2CCN(c3nc4nc(Cl)ccc4o3)CC2)cnc1OCC1(C(F)(F)F)CC1` [Example 138, [4-(5-chlorooxazolo[4,5-b]pyridin-2-yl)piperazin-1-yl]-[5-methoxy-6-[[1-(trifluoromethyl)cyclopropyl]methoxy]-3-pyridyl]methanone], for which the pIC50 was 6.74. The result for `Cc1ccc2oc(N3CCN(C(=O)c4ccc(OCC5(C(F)(F)F)CC5)c(C)n4)CC3)nc2n1` [Example 139, [4-(5-methyloxazolo[4,5-b]pyridin-2-yl)piperazin-1-yl]-[6-methyl-5-[[1-(trifluoromethyl)cyclopropyl]methoxy]-2-pyridyl]methanone] reads 6.41; that for `Cc1nc(C(=O)N2CCN(c3nc4nc(Cl)ccc4o3)CC2)ccc1OCC1(C(F)(F)F)CC1` [Example 140, [4-(5-chlorooxazolo[4,5-b]pyridin-2-yl)piperazin-1-yl]-[6-methyl-5-[[1-(trifluoromethyl)cyclopropyl]methoxy]-2-pyridyl]methanone], 6.49; that for `Cc1ccc2oc(N3CCN(C(=O)c4cnc(OCC5(C)CC5)c(F)c4)CC3)nc2n1` [Example 148, (5-fluoro-6-((1-methylcyclopropyl)methoxy)pyridin-3-yl)(4-(5-methyloxazolo[4,5-b]pyridin-2-yl)piperazin-1-yl)methanone], 6.65. For `CC1(COc2ncc(C(=O)N3CCN(c4nc5nc(Cl)ccc5o4)CC3)cc2Cl)CC1` [Example 149, (5-chloro-6-((1-methylcyclopropyl)methoxy)pyridin-3-yl)(4-(5-chlorooxazolo[4,5-b]pyridin-2-yl)piperazin-1-yl)methanone] the value was 7.70; for `Cc1ccc2oc(N3CCN(C(=O)c4cnc(OCC5(C(F)(F)F)CC5)c(F)c4)CC3)nc2n1` [Example 150, (5-fluoro-6-((1-(trifluoromethyl)cyclopropyl)methoxy)pyridin-3-yl)(4-(5-methyloxazolo[4,5-b]pyridin-2-yl)piperazin-1-yl)methanone], 7.34; for `Cc1ccc2oc(N3CCN(C(=O)c4cnc(OCC5(C(F)(F)F)CC5)c(OCC5(C(F)(F)F)CC5)c4)CC3)nc2n1` [Example 151, (5,6-bis((1-(trifluoromethyl)cyclopropyl)methoxy)pyridin-3-yl)(4-(5-methyloxazolo[4,5-b]pyridin-2-yl)piperazin-1-yl)methanone], 7.26. For `O=C(c1cnc(OCC2(C(F)(F)F)CC2)c(Cl)c1)N1CCN(c2nc3nc(Cl)ccc3o2)CC1` [Example 152, (5-chloro-6-((1-(trifluoromethyl)cyclopropyl)methoxy)pyridin-3-yl)(4-(5-chlorooxazolo[4,5-b]pyridin-2-yl)piperazin-1-yl)methanone] the value was 7.82.

On to `Cc1cc(C(=O)N2CCN(c3nc4nc(Cl)ccc4o3)CC2)cnc1OCC1(C(F)(F)F)CC1` [Example 153, (4-(5-chlorooxazolo[4,5-b]pyridin-2-yl)piperazin-1-yl)(5-methyl-6-((1-(trifluoromethyl)cyclopropyl)methoxy)pyridin-3-yl)methanone], for which the pIC50 was 8.00. In turn, `O=C(c1cnc(OCC2(C(F)(F)F)CC2)c(C(F)(F)F)c1)N1CCN(c2nc3nc(Cl)ccc3o2)CC1` [Example 154, (4-(5-chlorooxazolo[4,5-b]pyridin-2-yl)piperazin-1-yl)(5-(trifluoromethyl)-6-((1-(trifluoromethyl)cyclopropyl)methoxy)pyridin-3-yl)methanone] gave a pIC50 of 8.10.

Regarding `Cc1cc(C(=O)N2CCN(c3nc4nc(Cl)ccc4o3)CC2)cnc1OCC1CC1` [Example 155, (4-(5-chlorooxazolo[4,5-b]pyridin-2-yl)piperazin-1-yl)(6-(cyclopropylmethoxy)-5-methylpyridin-3-yl)methanone], the pIC50 was 7.05.

What is called pIC50 is the IC50 on a negative log10 scale, so that one unit is a factor of ten.
